Test results: the NIST ThermoML archive (doi:10.1021/je700026d)

Key:
[1] = Liquid; for speed of sound: 100 kPa, Linear variable-path acoustic interferometer; for viscosity / mass density: 101.3 kPa; for viscosity: Capillary tube (Ostwald / Ubbelohde) method; for mass density: Pycnometric method
[2] = xn = mol fraction of the nth substance listed; settings: Liquid; for speed of sound: 100 kPa, Linear variable-path acoustic interferometer; for viscosity: Capillary tube (Ostwald / Ubbelohde) method; for mass density: Pycnometric method

COCCOC [1,2-dimethoxyethane]
[1]
Settings	mass density [kg/m3]	speed of sound [m/s]	viscosity [mPa·s]
298.15 K	861.5	1146.2	0.409
308.15 K	850.7	–	0.366
318.15 K	839.6	–	0.33

COCCO [2-methoxyethan-1-ol]
[1]
Settings	mass density [kg/m3]	speed of sound [m/s]	viscosity [mPa·s]
298.15 K	959.7	1339.4	1.543
308.15 K	951.5	–	1.257
318.15 K	945.9	–	1.051

COCCO [2-methoxyethan-1-ol] + NC=O
Settings	speed of sound [m/s]
[2], 298.15 K, x2 = 0	1339.4

[2], 101.3 kPa, x2 = 0
Settings	mass density [kg/m3]	viscosity [mPa·s]
298.15 K	959.7	1.543
308.15 K	951.5	1.257
318.15 K	945.9	1.051

CC#N [acetonitrile]
[1]
Settings	mass density [kg/m3]	speed of sound [m/s]	viscosity [mPa·s]
298.15 K	776	1260.2	0.344
308.15 K	766.3	–	0.313
318.15 K	755	–	0.289

CC#N [acetonitrile] + NC=O
Settings	speed of sound [m/s]
[2], 298.15 K, x2 = 0	1260.2

[2], 101.3 kPa, x2 = 0
Settings	mass density [kg/m3]	viscosity [mPa·s]
298.15 K	776	0.344
308.15 K	766.3	0.313
318.15 K	755	0.289

CC(=O)c1ccccc1 [acetophenone]
[1]
Settings	mass density [kg/m3]	speed of sound [m/s]	viscosity [mPa·s]
298.15 K	1023.1	1296.4	1.653
308.15 K	1014.8	–	1.412
318.15 K	1007.5	–	1.117

C[S+](C)[O-] [dimethyl sulfoxide]
[1]
Settings	mass density [kg/m3]	speed of sound [m/s]	viscosity [mPa·s]
298.15 K	1095.4	1493	2.042
308.15 K	1085.9	–	1.568
318.15 K	1076.9	–	1.485

C[S+](C)[O-] [dimethyl sulfoxide] + NC=O
Settings	speed of sound [m/s]
[2], 298.15 K, x2 = 0	1493

[2], 101.3 kPa, x2 = 0
Settings	mass density [kg/m3]	viscosity [mPa·s]
298.15 K	1095.4	2.042
308.15 K	1085.9	1.568
318.15 K	1076.9	1.485

NC=O [formamide]
[1]
Settings	mass density [kg/m3]	speed of sound [m/s]	viscosity [mPa·s]
298.15 K	1129.2	1591.3	3.302
308.15 K	1120.5	–	2.542
318.15 K	1111.1	–	2.001

NC=O [formamide] + CC(=O)c1ccccc1
Settings	speed of sound [m/s]
[2], 298.15 K, x1 = 1	1591.3

[2], 101.3 kPa, x1 = 1
Settings	mass density [kg/m3]	viscosity [mPa·s]
298.15 K	1129.2	3.302
308.15 K	1120.5	2.542
318.15 K	1111.1	2.001

NC=O [formamide] + COCCOC
Settings	speed of sound [m/s]
[2], 298.15 K, x1 = 1	1591.3

[2], x1 = 1
Settings	mass density, 298.15 K [kg/m3]	mass density, 308.15 K [kg/m3]	mass density, 318.15 K [kg/m3]	viscosity, 298.15 K [mPa·s]	viscosity, 308.15 K [mPa·s]	viscosity, 318.15 K [mPa·s]
101 kPa	1129.2	1120.5	1111.1	–	–	–
101.3 kPa	–	–	–	3.302	2.542	2.001
